Values quoted from earlier work, collected in patent US6288110A, “Pharmaceutical compositions comprising disulfiram” (Yeda Research and Development Co Ltd., priority 1998, dated 2001).

Settings: non-enzymatic degradation; cited from earlier work

CCN(CC)C(=S)S [DDC, diethyldithiocarbamate]
further metabolism of DDC: non-enzymatic degradation to diethylamine (DEA)
